Results reported in patent US20260317324A1, “BIFUNCTIONAL COMPOUNDS FOR DEGRADING BRAF VIA UBIQUITIN PROTEOSOME PATHWAY” (Nurix Therapeutics, Inc., priority 2023, published 2026).

Assays:
Assay type in all cases: cell-based
BRAF D594G = molecular target: T1, BRAF D594G (Homo sapiens, UniProt P15056, D594G); assay: BRAF HiBiT degradation assay, C-terminal HiBiT-tagged BRAF D594G overexpressed in HCT-116 BRAF−/− cells (clone 63), Nano-Glo HiBiT Lytic assay; details: BRAF D594G; for DC50: DC50 at 50%: fitted conc. at Y=50; for Dmax: HCT-116, percentage protein degraded at maximal compound effect relative to DMSO
T1 construct: Horizon Discovery (HCT-116 BRAF−/− cells); host or cells: HCT-116 BRAF−/− cells, clone 63, lentiviral transduction
T1 sequence (P15056 whole entry D594G): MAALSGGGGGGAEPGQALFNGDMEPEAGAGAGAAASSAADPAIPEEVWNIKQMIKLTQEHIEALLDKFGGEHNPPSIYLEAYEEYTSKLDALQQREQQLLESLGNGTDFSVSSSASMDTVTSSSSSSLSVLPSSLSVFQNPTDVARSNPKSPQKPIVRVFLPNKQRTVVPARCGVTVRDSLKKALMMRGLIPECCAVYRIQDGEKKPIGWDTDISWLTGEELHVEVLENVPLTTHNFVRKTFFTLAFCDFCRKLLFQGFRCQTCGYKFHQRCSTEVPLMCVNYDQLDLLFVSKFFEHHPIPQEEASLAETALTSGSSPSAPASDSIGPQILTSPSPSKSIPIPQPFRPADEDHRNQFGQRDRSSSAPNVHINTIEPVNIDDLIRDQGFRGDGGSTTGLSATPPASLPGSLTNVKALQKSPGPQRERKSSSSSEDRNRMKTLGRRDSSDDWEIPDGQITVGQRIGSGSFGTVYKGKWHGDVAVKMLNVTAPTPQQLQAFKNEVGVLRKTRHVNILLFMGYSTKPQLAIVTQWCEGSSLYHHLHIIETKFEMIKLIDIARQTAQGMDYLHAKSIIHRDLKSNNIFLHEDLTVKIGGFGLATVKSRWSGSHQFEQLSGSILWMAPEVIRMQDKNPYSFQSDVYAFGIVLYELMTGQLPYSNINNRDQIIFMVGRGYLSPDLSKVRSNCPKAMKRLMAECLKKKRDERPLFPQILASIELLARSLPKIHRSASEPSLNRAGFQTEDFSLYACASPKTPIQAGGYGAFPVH
Procedure, shortened: (§1)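 HCT-116 BRAF−/− clones stably overexpressing C-terminal HiBiT-tagged mutant BRAF were seeded 24 h before treatment with an 11-point half-log series from 1 μM to 0.01 nM (0.2% DMSO final). Remaining protein was read by HiBiT lytic luminescence, with DMSO and wildtype-cell controls. DC50 was taken as the fitted concentration at 50% remaining protein; observed Dmax is reported relative to DMSO.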

BRAF G469A = molecular target: T2, BRAF G469A (Homo sapiens, UniProt P15056, G469A); assay: BRAF HiBiT degradation assay, C-terminal HiBiT-tagged BRAF G469A overexpressed in HCT-116 BRAF−/− cells (clone 34), Nano-Glo HiBiT Lytic assay; details: Class 2, BRAF G469A; for DC50: DC50 at 50%: fitted conc. at Y=50; for Dmax: HCT-116, percentage protein degraded at maximal compound effect relative to DMSO
T2 construct: Horizon Discovery (HCT-116 BRAF−/− cells); host or cells: HCT-116 BRAF−/− cells, clone 34, lentiviral transduction
T2 sequence (P15056 whole entry G469A): as the sequence (P15056 whole entry D594G) above, with G469A, G594D counted along it
Procedure, shortened: as §1

BRAF G466V = molecular target: T3, BRAF G466V (Homo sapiens, UniProt P15056, G466V); assay: BRAF HiBiT degradation assay, C-terminal HiBiT-tagged BRAF G466V overexpressed in HCT-116 BRAF−/− cells (clone 8), Nano-Glo HiBiT Lytic assay; details: BRAF G466V; for DC50: DC50 at 50%: fitted conc. at Y=50; for Dmax: HCT-116, percentage protein degraded at maximal compound effect relative to DMSO
T3 construct: Horizon Discovery (HCT-116 BRAF−/− cells); host or cells: HCT-116 BRAF−/− cells, clone 8, lentiviral transduction
T3 sequence (P15056 whole entry G466V): as the sequence (P15056 whole entry D594G) above, with G466V, G594D counted along it
Procedure, shortened: as §1

BRAF V600E = molecular target: T4, BRAF V600E (Homo sapiens, UniProt P15056, V600E); assay: BRAF HiBiT degradation assay, C-terminal HiBiT-tagged BRAF V600E A375 cells (clone 1F10), Nano-Glo HiBiT Lytic assay; details: A375 (BRAF V600E); for DC50: DC50 at 50%: fitted conc. at Y=50; for Dmax: A-375, percentage protein degraded at maximal compound effect relative to DMSO
T4 construct: endogenous C-terminal HiBiT fusion tag on BRAF V600E allele; endogenous in cells; host or cells: A375 clone 1F10 (CRISPR-Cas9 knock-in of the HiBiT tag; parental A375 from ATCC)
T4 sequence (P15056 whole entry V600E, the tested form may be a part): as the sequence (P15056 whole entry D594G) above, with G594D, V600E counted along it
Procedure, shortened: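 A375 cells (clone 1F10, endogenous C-terminal HiBiT on BRAF V600E) were seeded at 10,000 cells/well, grown 24 h, then dosed in duplicate with an 11-point series from 1 μM to 0.01 nM (0.2% DMSO). Nano-Glo HiBiT lytic luminescence was normalised to DMSO and wildtype-A375 background; DC50 was read at 50% protein remaining, alongside observed Dmax.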

Row | DC50 (BRAF D594G) [µM] | Dmax (BRAF D594G) [%] | DC50 (BRAF G469A) [µM] | Dmax (BRAF G469A) [%] | DC50 (BRAF G466V) [µM] | Dmax (BRAF G466V) [%] | DC50 (BRAF V600E) [µM] | Dmax (BRAF V600E) [%] | Structure (SMILES)
1 | > 0.5 | 30 to 70 | 0.05 to 0.5 | 30 to 70 | 0.05 to 0.5 | 30 to 70 | 0.01 to 0.05 | > 70 | CCCS(=O)(=O)Nc1cccc(-c2nc(C(C)(C)C)sc2-c2ccnc(Nc3cccc(OC4CCN(CC5(C)CCN(c6ccc(C7CCC(=O)NC7=O)cn6)CC5)CC4)c3)n2)c1F (racemic) [Compound 68, Rac-N-{3-[2-tert-butyl-5-(2-{[3-({1-[(1-{5-[(3R)-2,6-dioxopiperidin-3-yl]pyridin-2-yl}-4-methylpiperidin-4-yl)methyl]piperidin-4-yl}oxy)phenyl]amino}pyrimidin-4-yl)-1,3-thiazol-4-yl]-2-fluorophenyl}propane-1-sulfonamide]
2 | > 0.5 | 30 to 70 | > 0.5 | < 30 | > 0.5 | 30 to 70 | 0.01 to 0.05 | 30 to 70 | CCCS(=O)(=O)Nc1cccc(-c2nc(C(C)(C)C)sc2-c2ccnc(Nc3cccc(OC4CCN(C[C@H]5CC[C@H](Oc6ccc(C7CCC(=O)NC7=O)cc6)CC5)CC4)c3)n2)c1F (mixture of isomers) [Compound 72, N-(3-(2-(tert-butyl)-5-(2-((3-((1-(((1R,4r)-4-(4-((RS)-2,6-dioxopiperidin-3-yl)phenoxy)cyclohexyl)methyl)piperidin-4-yl)oxy)phenyl)amino)pyrimidin-4-yl)thiazol-4-yl)-2-fluorophenyl)propane-1-sulfonamide]
3 | > 0.5 | < 30 | > 0.5 | < 30 | > 0.5 | < 30 | 0.01 to 0.05 | 30 to 70 | CCCS(=O)(=O)Nc1cccc(-c2nc(C(C)(C)C)sc2-c2ccnc(Nc3cccc(C4CCN(CC5CCN(c6ccc7c(=O)n(C8CCC(=O)NC8=O)ccc7c6)CC5)CC4)c3)n2)c1F (racemic) [Compound 76, Rac-N-[3-(2-tert-butyl-5-{2-[(3-{1-[(1-{2-[(3R)-2,6-dioxopiperidin-3-yl]-1-oxo-1,2-dihydroisoquinolin-6-yl}piperidin-4-yl)methyl]piperidin-4-yl}phenyl)amino]pyrimidin-4-yl}-1,3-thiazol-4-yl)-2-fluorophenyl]propane-1-sulfonamide]

More lines, now with the values behind:

Row | Structure (SMILES) | DC50 (BRAF D594G) [µM] | Dmax (BRAF D594G) [%] | DC50 (BRAF G469A) [µM] | Dmax (BRAF G469A) [%] | DC50 (BRAF G466V) [µM] | Dmax (BRAF G466V) [%] | DC50 (BRAF V600E) [µM] | Dmax (BRAF V600E) [%]
4 | CCCS(=O)(=O)Nc1cccc(-c2nc(C)sc2-c2ccnc(Nc3ccc(N4CCN(CC5CCN(c6ccc(C7CCC(=O)NC7=O)cn6)CC5)CC4)cn3)n2)c1F (racemic) [Compound 62, Rac-N-[3-(5-{2-[(5-{4-[(1-{5-[(3R)-2,6-dioxopiperidin-3-yl]pyridin-2-yl}piperidin-4-yl)methyl]piperazin-1-yl}pyridin-2-yl)amino]pyrimidin-4-yl}-2-methyl-1,3-thiazol-4-yl)-2-fluorophenyl]propane-1-sulfonamide] | > 0.5 | 30 to 70 | < 0.01 | 30 to 70 | 0.01 to 0.05 | 30 to 70 | < 0.01 | > 70
5 | CCCS(=O)(=O)Nc1cccc(-c2nc(C(C)(C)C)sc2-c2ccnc(Nc3ccc(N4CCN(C(=O)C5CCN(c6ccc(C7CCC(=O)NC7=O)cc6)CC5)CC4)c(F)c3)n2)c1F (racemic) [Compound 65, Rac-N-(3-{2-tert-butyl-5-[2-({4-[4-(1-{4-[(3R)-2,6-dioxopiperidin-3-yl]phenyl}piperidine-4-carbonyl)piperazin-1-yl]-3-fluorophenyl}amino)pyrimidin-4-yl]-1,3-thiazol-4-yl}-2-fluorophenyl)propane-1-sulfonamide] | > 0.5 | 30 to 70 | > 0.5 | 30 to 70 | > 0.5 | 30 to 70 | < 0.01 | > 70
